Results on two compounds are retold here after ChEMBL document CHEMBL4342498, “Design and Discovery of an Orally Efficacious Spiroindolinone-Based Tankyrase Inhibitor for the Treatment of Colon Cancer” (J Med Chem, 2020).

The target of series [1] is T1, Poly [ADP-ribose] polymerase tankyrase-2 (Homo sapiens, UniProt Q9H2K2).
T1 sequence (Q9H2K2 whole entry): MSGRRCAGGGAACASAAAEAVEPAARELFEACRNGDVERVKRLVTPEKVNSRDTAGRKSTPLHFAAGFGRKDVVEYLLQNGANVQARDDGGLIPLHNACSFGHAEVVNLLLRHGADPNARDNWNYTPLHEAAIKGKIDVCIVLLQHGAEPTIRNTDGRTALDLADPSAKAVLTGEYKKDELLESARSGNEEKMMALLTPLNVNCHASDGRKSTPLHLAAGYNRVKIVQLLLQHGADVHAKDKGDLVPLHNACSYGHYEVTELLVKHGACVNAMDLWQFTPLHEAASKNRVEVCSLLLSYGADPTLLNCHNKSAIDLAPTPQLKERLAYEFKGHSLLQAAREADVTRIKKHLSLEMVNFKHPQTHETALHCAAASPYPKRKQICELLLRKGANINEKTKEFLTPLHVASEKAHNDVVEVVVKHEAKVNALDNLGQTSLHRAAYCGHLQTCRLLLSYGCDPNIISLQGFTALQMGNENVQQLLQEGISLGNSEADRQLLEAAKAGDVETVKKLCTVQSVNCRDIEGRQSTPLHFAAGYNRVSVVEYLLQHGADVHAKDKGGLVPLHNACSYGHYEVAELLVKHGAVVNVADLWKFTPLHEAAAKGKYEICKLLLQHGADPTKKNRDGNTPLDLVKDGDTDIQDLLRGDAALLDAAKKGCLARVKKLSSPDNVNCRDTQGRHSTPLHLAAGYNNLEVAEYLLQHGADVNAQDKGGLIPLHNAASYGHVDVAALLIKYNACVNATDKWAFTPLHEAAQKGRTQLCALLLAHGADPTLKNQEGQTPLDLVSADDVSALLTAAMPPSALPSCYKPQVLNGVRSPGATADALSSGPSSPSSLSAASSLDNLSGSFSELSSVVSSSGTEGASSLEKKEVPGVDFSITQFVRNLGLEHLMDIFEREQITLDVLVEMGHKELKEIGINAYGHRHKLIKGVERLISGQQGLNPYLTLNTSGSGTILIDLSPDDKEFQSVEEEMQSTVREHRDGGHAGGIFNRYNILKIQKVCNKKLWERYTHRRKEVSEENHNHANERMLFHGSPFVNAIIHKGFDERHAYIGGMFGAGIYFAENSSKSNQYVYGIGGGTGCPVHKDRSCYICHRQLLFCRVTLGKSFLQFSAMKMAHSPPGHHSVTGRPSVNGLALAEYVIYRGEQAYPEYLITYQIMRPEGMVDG
In words: Inhibition of recombinant human N-terminal TEV cleavage site-fused/FLAG-poly his-tagged TNKS2 ARC5-SAM-PARP domain (613 to 1166 residues) expressed in Escherichia coli assessed as reduction in auto-PARylation preincubated for 10 mins followed by biotinylated-NAD+ addition and measured after 45 mins by ELISA.

The nature of series [2]: Stability in mouse liver microsomes assessed as parent compound remaining at 1 uM measured after 30 mins in presence of NADPH by LC-MS/MS analysis. It counts as ADME, Microsome. Particulars: read-out: Stability.
The nature of series [3]: Stability in mouse liver microsomes assessed as parent compound remaining at 1 uM measured after 60 mins in presence of NADPH by LC-MS/MS analysis. It counts as ADME, Microsome. Conditions: read-out: Stability.
A short description of series [4]: Net efflux ratio of permeability across basolateral to apical side over apical to basolateral side in MDCK2-MDR1 cells to MDCK2 cells. The class given is ADME, cell-based, Canis lupus familiaris. Particulars: dog, mdck.
The nature of series [5]: Tmax in ICR mouse at 50 mg/kg, ip. It counts as ADME, organism-based. Conditions: in vivo.
Series [6] can be described thus: Cmax in ICR mouse at 50 mg/kg, ip. Also on record: dose 50 mg/kg, route intraperitoneal. Particulars: in vivo. It counts as ADME, organism-based.
A short description of series [7]: Half life in ICR mouse at 50 mg/kg, ip. It counts as ADME, organism-based. Conditions: in vivo.
A short description of series [8]: AUC (infinity) in ICR mouse at 50 mg/kg, ip. Conditions: in vivo. It counts as ADME, organism-based. The arrangement: dose 50 mg/kg, route intraperitoneal, time infinity.
Series [9] in a line: AUC (infinity) in ICR mouse at 50 mg/kg, po. It counts as ADME, organism-based. Conditions: in vivo. The arrangement: dose 50 mg/kg, time infinity, route oral.
For series [10], the target named is T2, Poly [ADP-ribose] polymerase tankyrase-1 (Homo sapiens, UniProt O95271).
T2 sequence (O95271 whole entry): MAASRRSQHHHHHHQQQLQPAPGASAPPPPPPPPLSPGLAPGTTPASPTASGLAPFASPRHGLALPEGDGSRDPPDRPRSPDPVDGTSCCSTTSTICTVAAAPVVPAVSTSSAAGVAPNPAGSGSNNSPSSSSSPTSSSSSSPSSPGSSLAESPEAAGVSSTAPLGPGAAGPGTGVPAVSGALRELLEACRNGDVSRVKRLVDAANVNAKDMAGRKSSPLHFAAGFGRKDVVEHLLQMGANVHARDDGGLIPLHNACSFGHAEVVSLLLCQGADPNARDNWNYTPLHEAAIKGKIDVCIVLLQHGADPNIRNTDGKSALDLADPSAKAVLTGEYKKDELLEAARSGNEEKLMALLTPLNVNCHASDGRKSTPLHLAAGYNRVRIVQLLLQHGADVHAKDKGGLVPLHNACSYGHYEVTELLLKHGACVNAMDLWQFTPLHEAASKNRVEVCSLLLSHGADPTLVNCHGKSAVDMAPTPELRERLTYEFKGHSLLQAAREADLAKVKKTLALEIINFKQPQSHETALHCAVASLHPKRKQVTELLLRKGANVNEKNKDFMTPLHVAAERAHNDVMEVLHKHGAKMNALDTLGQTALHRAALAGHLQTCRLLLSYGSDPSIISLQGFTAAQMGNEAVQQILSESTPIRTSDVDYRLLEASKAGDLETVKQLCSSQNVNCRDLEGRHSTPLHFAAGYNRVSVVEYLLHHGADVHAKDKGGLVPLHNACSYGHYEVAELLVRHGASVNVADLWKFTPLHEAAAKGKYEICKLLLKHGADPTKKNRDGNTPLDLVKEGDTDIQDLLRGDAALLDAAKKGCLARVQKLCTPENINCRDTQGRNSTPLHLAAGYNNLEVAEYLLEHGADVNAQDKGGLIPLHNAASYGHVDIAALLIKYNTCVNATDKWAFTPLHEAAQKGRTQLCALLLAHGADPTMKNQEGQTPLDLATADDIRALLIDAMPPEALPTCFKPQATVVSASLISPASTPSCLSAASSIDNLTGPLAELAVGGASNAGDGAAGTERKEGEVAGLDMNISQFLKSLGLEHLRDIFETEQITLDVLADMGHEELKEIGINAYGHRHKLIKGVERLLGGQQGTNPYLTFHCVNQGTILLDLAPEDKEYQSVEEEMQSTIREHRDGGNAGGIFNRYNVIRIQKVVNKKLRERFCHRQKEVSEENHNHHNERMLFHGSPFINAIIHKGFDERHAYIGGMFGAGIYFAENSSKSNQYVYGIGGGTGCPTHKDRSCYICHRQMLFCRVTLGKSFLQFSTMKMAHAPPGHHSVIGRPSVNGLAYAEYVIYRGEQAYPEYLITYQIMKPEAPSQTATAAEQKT
Description: Inhibition of recombinant human N-terminal TEV cleavage site-fused/FLAG-poly his-tagged TNKS SAM-PARP domain (1024 to 1327 residues) expressed in Escherichia coli assessed as reduction in auto-PARylation preincubated for 10 mins followed by biotinylated-NAD+ addition and measured after 45 mins by ELISA

Series [11] addresses T3, Tankyrase 1/2 (Homo sapiens, UniProt Q9H2K2+O95271).
T3 sequence (Q9H2K2 whole entry): T1 sequence (Q9H2K2 whole entry)
T3 sequence (O95271 whole entry): T2 sequence (O95271 whole entry)
Conditions: hek293.
Description: Inhibition of TNKS/TNKS2 (unknown origin) expressed in HEK293 cells assessed as reduction in Wnt-signaling measured after 24 hrs by TCF-luciferase reporter gene assay

The nature of series [12]: physchem. Particulars: phosphate buffered saline, pH 7.4.

pIC50: −log10 of the molar value. Converted amounts (≈) assume the structure as drawn.

As for `CN1CCN(c2cc(F)c3c(c2)N(C)C(=O)C32CCN(c3nc4c(c(=O)[nH]3)CCCN4C)CC2)CC1`, the pIC50 in series [1] is 7.91; in series [10], 8.11. In addition, the remaining at 0.5 h, 1 µM in [2] worked out at 54.9%. Besides, in series [3], the remaining at 1 h, 1 µM is 30.5 to 54.5%. For the same compound, in series [4], the Ratio is 4.3. The Tmax in series [5] stood at 0.5 h. For the same compound, in series [6], the Cmax came out at 53.6 µM. The compound also showed a half-life in series [7] of 2.5 h. Besides, the AUC(0-inf) in series [8] was 207 µM·h; in series [9], 77 µM·h. In series [11], this compound registered an IC50 of 0.9 nM. This compound displayed a solubility at 1 h, 200 µM in series [12] of 94.5 µg/mL (≈ 191 µM).

For the compound `C[C@@H]1CN(c2cc(F)c3c(c2)N(C)C(=O)C32CCN(c3nc4c(c(=O)[nH]3)CCCN4C)CC2)C[C@H](C)O1`, the negative logarithm of the IC50 (pIC50) is 7.41 in series [1] and 7.44 in series [10]. For the same compound, in [2], the remaining at 0.5 h, 1 µM turned out to be 49.7%. In addition, the remaining at 1 h, 1 µM in [3] was in the range of 28.7 to 55.9%. The Ratio in series [4] is recorded as 1.1. In series [5], the Tmax came out at 1 h. Besides, in series [6], the highest level (Cmax) was 102 µM. In series [7], this compound had a half-life of 1.9 h. For the same compound, the results for the AUC(0-inf) in series [8] and in [9] were 607 µM·h and 594 µM·h, respectively. The same compound registered an IC50 in series [11] of 0.3 nM. For the same compound, the solubility at 1 h, 200 µM in series [12] was 34.1 µg/mL (≈ 66.8 µM).
